Bounds are passed on as bounds.

Data set [1] can be described thus: Stability study, comparative ubiquinol vs cocrystals: storage in a chamber, periodic analysis for ubiquinone and the form detected. The data set is classed as physicochemical. As to conditions: for stability at 25° C. measured by controlling the moment when ubiquinone was detected: "<" ubiquinone detected at least after the indicated days, ">" ubiquinone not detected yet. As for the experimental part: Powder X-Ray diffraction (PXRD) analyses were performed by sandwiching the powder samples between polyester films of 10 micrometres of thickness or polyamide (kapton) films of 15 micrometres of thickness and analysed in a PANalytical X′Pert PRO MPD q/q powder diffractometer of 240 millimetres of radius, in a configuration of convergent beam with a focalizing mirror and a flat sample transmission geometry, in the following experimental conditions: Cu Kα radiation (λ=1.5406 Å); Work power: 45 kV and 40 mA; Incident beam slits defining a beam height of 0.4 millimetres; Incident and diffracted beam 0.02 radians Soller slits; PIXcel detector: Active length=3.347°; 2θ/θ scans from 2 to 40° 2θ with a step size of 0.026° 2θ and a measuring time of 76 seconds per step.
The stability of the different forms has been studied under two experimental conditions. The samples were stored under both conditions inside a Series FD Binder chamber and they were analyzed periodically: • condition A: 25° C. and 57% of relative humidity; • condition B: 40° C. and 75% of relative humidity.
A saturated solution of sodium bromide salt (57% RH) and a saturated solution of sodium chloride (75% RH) were used to control relative humidity.
75% HR by indicating the form detected after the mentioned days. No ubiquinone was detected at least after 14 days.

Assay in data set [2]: as above
The data set is classed as physicochemical. Conditions: relative humidity not controlled, "<" ubiquinone detected at least after the indicated days, ">" ubiquinone not detected yet.

Where [3] appears, read: 25° C.-57% HR, 435 days, ^1: low crystallinity.
The mark [4] stands for this setting: 40° C.-75% HR, 14 days, "—^1" (footnote *): the sample absorbed moisture showing a liquid texture.
Where [5] appears, read: 40° C.-75% HR, 51 days, ^1: low crystallinity.

As to “Cocrystal Hydrate of Ubiquinol and 3,4-dihydroxybenzoic Acid [P58-III]”, the form detected result in data set [1] (25° C.-57% HR, 7 days) was “P58-III”; in data set [1] (25° C.-57% HR, 14 days), “P58-III”; in data set [1] (25° C.-57% HR, 51 days), “P58-III”; in data set [1] (25° C.-57% HR, 84 days) it was “P58-III”; in data set [1] (25° C.-57% HR, 119 days), “P58-III”; in data set [1] (25° C.-57% HR, 235 days), “P58-III”. Further, the form detected result in data set [1] (25° C.-57% HR, 405 days) is given as “P58-III”; in data set [1] (setting [3]), “P58-III”; in data set [1] (25° C.-57% HR, 551 days, ^1: low crystallinity) it was “P58-III^1”; in data set [1] (25° C.-57% HR, time 0), “P58-III”; in data set [1] (40° C.-75% HR, 7 days), “P58-III”; in data set [1] (setting [4]) it was “P58-III”. The form detected entry in data set [1] (setting [5]) was “P58-III”; in data set [1] (40° C.-75% HR, 235 days), “Ubiquinone”; in data set [1] (40° C.-75% HR, time 0), “P58-III”.
Turning to `COc1c(O)c(C)c(CC=C(C)CCC=C(C)CCC=C(C)CCC=C(C)CCC=C(C)CCC=C(C)CCC=C(C)CCC=C(C)CCC=C(C)CCC=C(C)C)c(O)c1OC.O=C(O)c1cccc(O)c1` [P58-VI, Cocrystal of Ubiquinol and 3-Hydroxybenzoic Acid], the form detected entry is “P58-VI” in data set [1] (25° C.-57% HR, 7 days); “P58-VI” in data set [1] (25° C.-57% HR, 14 days); “P58-VI” in data set [1] (25° C.-57% HR, 51 days); “P58-VI” in data set [1] (25° C.-57% HR, 119 days); “P58-VI” in data set [1] (25° C.-57% HR, 288 days); “P58-VI^1” in data set [1] (setting [3]). For the same compound, the form detected result was “P58-VI” in data set [1] (25° C.-57% HR, time 0); “P58-VI” in data set [1] (40° C.-75% HR, 7 days); “P58-VI” in data set [1] (setting [4]); “Ubiquinone^1” in data set [1] (setting [5]); “P58-VI” in data set [1] (40° C.-75% HR, time 0). Besides, the “stability at 25° C. measured by controlling the moment when ubiquinone was detected” value was greater than 434 days in data set [1] (25° C.-57% HR) and greater than 64 days in data set [2].
Take Ubiquinol [reference compound]: the form detected entry in data set [1] (25° C.-57% HR, 7 days) was “Form A”; in data set [1] (25° C.-57% HR, 14 days), “mixture Form A and Form B”; in data set [1] (25° C.-57% HR, 26 days), “mixture Form B and Ubiquinone”; in data set [1] (25° C.-57% HR, 37 days), “mixture Form B and Ubiquinone”; in data set [1] (25° C.-57% HR, 62 days, ^2: analyzed by 1H-NMR, confirms presence of Ubiquinone), “mixture Form B and Ubiquinone^2”; in data set [1] (25° C.-57% HR, 130 days), “mixture Form B and Ubiquinone”. The form detected result in data set [1] (25° C.-57% HR, 300 days) is “mixture Form B and Ubiquinone”; in data set [1] (25° C.-57% HR, 446 days), “Ubiquinone (low crystallinity)”; in data set [1] (25° C.-57% HR, time 0) it was “Form A”; in data set [1] (40° C.-75% HR, 7 days), “Form B”; in data set [1] (40° C.-75% HR, time 0), “Form A”. Further, the “stability at 25° C. measured by controlling the moment when ubiquinone was detected” value is reported as less than 26 days in data set [1] (25° C.-57% HR) and less than 50 days in data set [2].
On to `COc1c(O)c(C)c(CC=C(C)CCC=C(C)CCC=C(C)CCC=C(C)CCC=C(C)CCC=C(C)CCC=C(C)CCC=C(C)CCC=C(C)CCC=C(C)C)c(O)c1OC.O=C(O)c1cc(O)cc(O)c1` [P58-V, Cocrystal of Ubiquinol and 3,5-dihydroxybenzoic Acid], for which the stability result in data set [1] (compared with cocrystal P58-III) is reported as “expected to be similar to cocrystal P58-III”.

Values taken from patent US11731927B2, “Cocrystals of ubiquinol and compositions comprising them” (Center for Intelligent Research in Crystal Engineering, S.L., priority 2018, dated 2023).
